By IC50 is commonly meant the midpoint of a concentration-inhibition curve. Read a low IC50 as inhibition by little substance.

The values below come from ChEMBL document CHEMBL5053557, “Discovery of Novel Dual-Target Inhibitor of Bromodomain-Containing Protein 4/Casein Kinase 2 Inducing Apoptosis and Autophagy-Associated Cell Death for Triple-Negative Breast Cancer Therapy” (J Med Chem, 2021).

This assay deals with Casein kinase II subunit alpha (Homo sapiens, UniProt P68400). Briefly: Inhibition of CK2 (unknown origin).
Sequence of Casein kinase II subunit alpha (P68400 whole entry): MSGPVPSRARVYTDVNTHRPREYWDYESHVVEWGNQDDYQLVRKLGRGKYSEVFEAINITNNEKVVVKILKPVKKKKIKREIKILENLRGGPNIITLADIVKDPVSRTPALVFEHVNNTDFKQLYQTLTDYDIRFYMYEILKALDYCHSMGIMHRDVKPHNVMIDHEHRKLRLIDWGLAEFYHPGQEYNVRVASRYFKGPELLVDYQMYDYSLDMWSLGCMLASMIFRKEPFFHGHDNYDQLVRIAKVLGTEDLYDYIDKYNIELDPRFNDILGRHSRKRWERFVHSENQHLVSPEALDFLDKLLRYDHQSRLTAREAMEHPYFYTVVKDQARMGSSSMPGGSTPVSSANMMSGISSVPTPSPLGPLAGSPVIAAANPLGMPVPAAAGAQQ

For `COc1cc(OC)c2c(=O)[nH]c(-c3ccc(OCC(=O)Nc4ccc(N5CCN(C)CC5)c(Cl)c4)cc3)nc2c1`, the IC50 was 230 nM.
